Assay results as given in patent US8637058B2, “Compositions based on cupric salts, cupric salts and their use for controlling phytopathogens” (priority 2001, dated 2014).

Test system: isolated portion of the phytopathogen with a reduced sensitivity (Plasmopara viticola)
Assay: Control of Plasmopara viticola on grapes, preventive leaf application (greenhouse test), isolate with reduced sensitivity
Format: in vivo
Settings: fungicide alone at 0.05 ppm, scale 100 to 0
Description: Efficacy of Compound Nr. 1 Mixed with Another Fungicidal Compound in the Control of Plasmopara viticola on Grapes in Preventive Leaf Application (Greenhouse Test) Table 3.
Leaves of cultivar Dolcetto grape vines, cultivated in vases, in a conditioned environment (20±1° C., 70% relative humidity) are treated by spraying both sides of the leaves with compound Nr. 1 mixed with another fungicide dispersed in a hydroacetone solution at 10% by volume of acetone containing 0.3% of tween 20.
After remaining 24 hours in a conditioned environment, the plants are infected on the lower side with an aqueous suspension of spores of Plasmopara viticola (200,000 spores per cm^3).
The plants are kept in a humidity saturated environment, at 21° C., for the incubation period of the fungus and, at the end of this period (7 days), the fungicidal activity is evaluated according to a percentage evaluation scale from 100 (healthy plant) to 0 (completely infected plant).
From the data indicated in Table 3, the synergic effect of the mixtures, consisting of compound Nr. […]
When the fungicidal activity experimentally evaluated is greater than the value of E, this activity should be considered as a synergic effect.

COCC(=O)N(c1c(C)cccc1C)C(C)C(=O)OC (stereo not shown) [Metalaxyl, metalaxyl]
Activity (y): 12
